Measured values taken from US11912682B2, “Isoindolinone compounds” (Monte Rosa Therapeutics, Inc., priority 2021, dated 2024).
pIC50: −log10 of the molar value. Where two headings read alike, the source gives them in different places.

Tests used:
GSPT1 = GSPT1 (Homo sapiens (Human), UniProt P15170+Q96SW2); test: immunofluorescence assay for GSPT1 degradation in CAL-51 cells (Example 4); format: cell-based
Protocol: The representative compounds were tested in an immunofluorescence assay for their activity to bind to degrade GSPT1. CAL-51 cells were purchased from DSMZ (cat. Number ACC302), sub-cultured in 90% Dulbecco's MEM (4.5 g/L glucose, Gibco 11965) +10% heat inactivated FBS (BioConcept, 2-01F136I) and incubated at 37° C., 5% CO2. For the assay, imaging microtiterplate Cell Carrier 96 Ultra (Perkin Elmer 6055302) were pre-coated with Fibronectin (Sigma F085, 30 μl at 0.2 μg/ml) in PBS (100 μl, Gibco 14190) for 45 min at room temperature, rinsed with PBS and CAL-51 cells (30 K cells/well) were plated and let to adhere overnight. Cells were treated with compounds typically using a serial dilution ranging from 30 μM to 0.1 nM for 6 hours. Compounds were stored at 10 mM DMSO stocks. Vehicle (DMSO), positive (CC-885, 10 μM) and rescue controls (positive control plus 0.2 μM bortezomib) were also included atthis stage. Cells were subsequently rinsed with PBS and fixed in 10% Formalin solution (50 μl, Sigma HT5011)) for 20 mins at room temperature. Following three consecutive PBS washes (100 μl), cells were permeabilized in 0.1% Triton X-100 in PBS (Sigma 93443, 50 μl) for 15 mins at room temperature. Following three further PBS washes, 50 μl blocking buffer (1% BSA, Sigma A4503, in PBS) was added for 45 min for signal-to-noise reduction.
Primary antibody (human GSPT1, Sigma HPA052488) was diluted in blocking buffer (dil.1/300, 35 μl/well) and incubated with the cells overnight at 4° C. After three PBS washes, Alexa-fluor 488 coupled secondary antibodies (Invitrogen, A32731, dil.1/1000), Alexa-fluor 647-Phalloidin (Invitrogen, A22287, dil.1/200) and DAPI (Thermo, #62248, dil.1/1000) were diluted in blocking buffer and incubated with the samples for 2 hours at room temperature. After three final PBS washes, samples were conserved in 100 μl PBS in the dark, until measurement. Image acquisition was performed on the Operetta High-Content Imager (Perkin-Elmer). Fluorescence intensity of Alexa-Fluor 488 (GSPT1), Alexa-Fluor 647 (Actin) and DAPI (Nucleus) were measured. For the determination of GSPT1 DC50 values, a custom algorithm implemented in the PerkinElmer image analysis software Harmony-Acapella® was developed. After user-defined setting of adjustment parameters, the analysis was run identically without human intervention for all image fields. DAPI staining of the nuclei was used to determine the location of cells using standard nuclei detection modules. Segmentation artifacts were removed by threshold-based filters for area, roundness and intensity. The outline of the cells was determined analogously from the sum of the normalized, smoothed DAPI and Actin channel, starting from each nucleus. The Alexa-Fluor 488 (GSPT1) signal intensity in each cell was finally measured, in order to obtain a Mean intensity per cell. GSPT1 degradation (DC50) was calculated after normalization to controls and data import in CDD vault Database, using non-linear regression.

[1] = target: Full length wild-type cereblon CRBN (Homo sapiens (Human), UniProt Q96SW2); test: fluorescence polarization (FP) assay, cereblon binding; conditions: read-out: rFP IC50
Full length wild-type cereblon CRBN, sequence (Q96SW2 whole entry): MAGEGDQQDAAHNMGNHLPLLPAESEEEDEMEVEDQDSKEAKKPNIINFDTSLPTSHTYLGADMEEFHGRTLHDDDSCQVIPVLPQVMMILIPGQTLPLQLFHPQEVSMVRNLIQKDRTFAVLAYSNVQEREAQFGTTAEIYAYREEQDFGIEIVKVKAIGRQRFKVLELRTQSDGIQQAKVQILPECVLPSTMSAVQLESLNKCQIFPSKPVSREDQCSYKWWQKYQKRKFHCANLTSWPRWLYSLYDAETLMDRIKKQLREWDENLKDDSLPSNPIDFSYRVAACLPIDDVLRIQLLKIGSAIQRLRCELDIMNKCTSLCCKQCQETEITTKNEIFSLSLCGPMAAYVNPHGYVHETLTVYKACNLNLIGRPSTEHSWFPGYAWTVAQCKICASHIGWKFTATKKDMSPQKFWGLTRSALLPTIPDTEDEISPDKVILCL
From the text: Compound activity was monitored in a fluorescence polarization (FP) homogeneous assay using 1-[5-({2-[2-(2-{[2-(2,6-dioxopiperidin-3-yl)-1,3-dioxo-2,3-dihydro-1H-isoindol-4-yl]oxy}acetamido)ethoxy]ethyl}carbamoyl)pentyl]-3,3-dimethyl-2-[(1E,3E)-5-[(2E)-1,3,3-trimethyl-5-sulfo-2,3-dihydro-1H-indol-2-ylidene]penta-1,3-dien-1-yl]-3H-indol-1-ium-5-sulfonate as a fluorescent probe. Unless otherwise stated, all reagents were purchased from Sigma Aldrich. […] Full length wild-type cereblon CRBN (80.0 nM, 10 μL) was incubated in assay buffer containing 20 mM HEPES (pH 8.0), […], 0.5 mM TCEP and 0.05% Tween 20 in the presence or absence of compound (300 nL). Inhibitors were stored as 10 mM DMSO stocks in an inert environment (low humidity, dark, low oxygen, room temperature) using the Storage Pod System. […] Following incubation at room temperature for 30 min, the assay was initiated by dispensing the probe to a final concentration of 5 nM (2.5 nL of a 20 μM stock) using the Echo ESXX. […] The FP signal was subsequently normalized to the no-compound control (i.e., DMSO). Analysis and IC50 values were derived using Dotmatics (Dotmatics UK) software.

[2] = 6 hours, read-out: Activity for GSPT1 degradation, Code (DC50)
[3] = GSPT1 degradation, read-out: DC50 value

GSPT1, sequence (P15170 whole entry): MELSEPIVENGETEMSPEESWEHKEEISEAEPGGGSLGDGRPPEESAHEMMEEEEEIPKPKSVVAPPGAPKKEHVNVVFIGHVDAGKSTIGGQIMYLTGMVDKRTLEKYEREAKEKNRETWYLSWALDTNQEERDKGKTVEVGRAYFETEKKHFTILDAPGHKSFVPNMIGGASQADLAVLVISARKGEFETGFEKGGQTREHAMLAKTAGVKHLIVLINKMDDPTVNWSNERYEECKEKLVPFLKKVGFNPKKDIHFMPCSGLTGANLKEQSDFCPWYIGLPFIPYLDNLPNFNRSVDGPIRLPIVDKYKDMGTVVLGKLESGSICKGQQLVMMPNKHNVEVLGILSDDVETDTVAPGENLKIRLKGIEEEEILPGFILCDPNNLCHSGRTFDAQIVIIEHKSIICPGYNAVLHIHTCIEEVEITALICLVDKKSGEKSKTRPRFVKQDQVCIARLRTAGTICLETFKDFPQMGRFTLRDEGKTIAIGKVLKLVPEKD
GSPT1, sequence (Q96SW2 whole entry): as the sequence (Q96SW2 whole entry) above
GSPT1, sequence (Q16531 2-1140 partner): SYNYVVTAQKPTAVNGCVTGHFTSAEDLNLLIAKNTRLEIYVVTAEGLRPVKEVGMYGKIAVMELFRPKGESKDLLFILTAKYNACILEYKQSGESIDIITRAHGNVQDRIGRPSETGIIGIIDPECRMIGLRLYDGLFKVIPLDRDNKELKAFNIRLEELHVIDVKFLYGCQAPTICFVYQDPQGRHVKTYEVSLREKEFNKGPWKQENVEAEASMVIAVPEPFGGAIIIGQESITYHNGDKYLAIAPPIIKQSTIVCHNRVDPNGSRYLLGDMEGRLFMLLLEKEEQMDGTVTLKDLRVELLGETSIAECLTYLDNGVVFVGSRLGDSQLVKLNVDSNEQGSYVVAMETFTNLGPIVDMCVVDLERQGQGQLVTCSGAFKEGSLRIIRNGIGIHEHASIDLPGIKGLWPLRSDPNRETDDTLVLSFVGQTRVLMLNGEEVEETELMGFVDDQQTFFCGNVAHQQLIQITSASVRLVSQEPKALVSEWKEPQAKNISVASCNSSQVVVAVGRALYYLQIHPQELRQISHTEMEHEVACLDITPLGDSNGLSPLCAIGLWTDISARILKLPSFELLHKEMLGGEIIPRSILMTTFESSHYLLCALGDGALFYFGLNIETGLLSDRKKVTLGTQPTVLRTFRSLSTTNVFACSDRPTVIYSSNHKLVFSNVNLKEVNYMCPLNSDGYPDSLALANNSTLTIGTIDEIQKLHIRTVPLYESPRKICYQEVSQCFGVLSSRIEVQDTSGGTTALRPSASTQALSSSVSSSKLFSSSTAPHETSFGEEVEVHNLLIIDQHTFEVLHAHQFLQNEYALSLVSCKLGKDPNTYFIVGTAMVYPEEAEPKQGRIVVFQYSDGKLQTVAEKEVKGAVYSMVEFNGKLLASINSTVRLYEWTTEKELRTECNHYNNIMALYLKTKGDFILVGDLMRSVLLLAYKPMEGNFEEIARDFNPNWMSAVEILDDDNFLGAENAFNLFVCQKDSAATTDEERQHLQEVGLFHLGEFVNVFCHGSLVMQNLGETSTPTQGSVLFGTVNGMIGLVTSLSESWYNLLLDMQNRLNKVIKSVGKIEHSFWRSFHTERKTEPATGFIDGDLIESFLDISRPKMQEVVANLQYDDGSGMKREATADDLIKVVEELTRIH

O=C1CCC(N2Cc3ccc(COC(=O)Nc4ccc(OC(F)(F)F)cc4)cc3C2=O)C(=O)N1 (stereo not shown) [Compound 154, (2-(2,6-dioxopiperidin-3-yl)-3-oxoisoindolin-5-yl)methyl (4-(trifluoromethoxy)phenyl)carbamate]
DC50 (GSPT1; [2]): 30 to 300 nM
pIC50 [1]: < 5.77

O=C1CCC(N2Cc3ccc(COC(=O)Nc4ccc(N5CCC5)nc4)cc3C2=O)C(=O)N1 (stereo not shown) [Compound 107]
DC50 (GSPT1; [2]): > 300 nM
pIC50 [1]: > 6.30

CCc1nscc1NC(=O)OCc1ccc2c(c1)C(=O)N(C1CCC(=O)NC1=O)C2 (stereo not shown) [Compound 147]
DC50 (GSPT1; [2]): > 300 nM

CCOc1cc(NC(=O)OCc2ccc3c(c2)C(=O)N(C2CCC(=O)NC2=O)C3)ccc1C (stereo not shown) [Compound 33]
DC50 (GSPT1; [2]): 30 to 300 nM

O=C1CCC(N2Cc3ccc(COC(=O)Nc4cc(F)cc(Cl)c4)cc3C2=O)C(=O)N1 (stereo not shown) [Compound 12]
DC50 (GSPT1; [2]): 30 to 300 nM

Cc1cc(Cl)cc(NC(=O)OCc2ccc3c(c2)C(=O)N(C2CCC(=O)NC2=O)C3)c1 (stereo not shown) [Compound 144, (2-(2,6-dioxopiperidin-3-yl)-3-oxoisoindolin-5-yl)methyl (3-chloro-5-methylphenyl)carbamate]
DC50 (GSPT1; [2]): 30 to 300 nM

COc1cc(NC(=O)OCc2ccc3c(c2)C(=O)N(C2CCC(=O)NC2=O)C3)cnc1-c1ccccc1 (stereo not shown) [Compound 90]
DC50 (GSPT1; [2]): < 30 nM
DC50 (GSPT1; [3]): ≤ 30 nM

O=C1CCC(N2Cc3ccc(COC(=O)Nc4cc(F)c(F)c(Cl)c4)cc3C2=O)C(=O)N1 (stereo not shown) [Compound 132]
DC50 (GSPT1; [2]): 30 to 300 nM

O=C1CCC(N2Cc3ccc(COC(=O)Nc4cc(Cl)cc(OC5CCNC5)c4)cc3C2=O)C(=O)N1 (stereo not shown) [Compound 20]
DC50 (GSPT1; [2]): > 300 nM

O=C1CCC(N2Cc3ccc(COC(=O)Nc4ccc5c(c4)CCC5)cc3C2=O)C(=O)N1 (stereo not shown) [Compound 56]
DC50 (GSPT1; [2]): 30 to 300 nM

CC(C)(C)C12CC(NC(=O)OCc3ccc4c(c3)C(=O)N(C3CCC(=O)NC3=O)C4)(C1)C2 (stereo not shown) [Compound 120, (2-(2,6-dioxopiperidin-3-yl)-3-oxoisoindolin-5-yl)methyl (3-(tert-butyl)bicyclo[1.1.1]pentan-1-yl)carbamate]
DC50 (GSPT1; [2]): 30 to 300 nM

Cc1cc(F)cc(NC(=O)OCc2ccc3c(c2)C(=O)N(C2CCC(=O)NC2=O)C3)c1 (stereo not shown) [Compound 146, (2-(2,6-dioxopiperidin-3-yl)-3-oxoisoindolin-5-yl)methyl (3-fluoro-5-methylphenyl) carbamate]
DC50 (GSPT1; [2]): 30 to 300 nM

Cc1c(F)cc(NC(=O)OCc2ccc3c(c2)C(=O)N(C2CCC(=O)NC2=O)C3)cc1F (stereo not shown) [Compound 127, (2-(2,6-dioxopiperidin-3-yl)-3-oxoisoindolin-5-yl)methyl (3,5-difluoro-4-methylphenyl)carbamate]
DC50 (GSPT1; [2]): 30 to 300 nM

COc1ccc(Cl)cc1NC(=O)OCc1ccc2c(c1)C(=O)N(C1CCC(=O)NC1=O)C2 (stereo not shown) [Compound 14]
DC50 (GSPT1; [2]): > 300 nM

O=C1CCC(N2Cc3ccc(COC(=O)Nc4cc(C(F)(F)F)ns4)cc3C2=O)C(=O)N1 (stereo not shown) [Compound 139]
DC50 (GSPT1; [2]): 30 to 300 nM

CC(C)(C)c1ccc(NC(=O)OCc2ccc3c(c2)C(=O)N(C2CCC(=O)NC2=O)C3)nc1 (stereo not shown) [Compound 131, (2-(2,6-dioxopiperidin-3-yl)-3-oxoisoindolin-5-yl)methyl (5-(tert-butyl)pyridin-2-yl)carbamate]
DC50 (GSPT1; [2]): 30 to 300 nM

O=C1CCC(N2Cc3ccc(COC(=O)NC4COC(c5ccccc5)OC4)cc3C2=O)C(=O)N1 (stereo not shown) [Compound 130]
DC50 (GSPT1; [2]): > 300 nM

Cc1cc(F)c(NC(=O)OCc2ccc3c(c2)C(=O)N(C2CCC(=O)NC2=O)C3)cc1Cl (stereo not shown) [Compound 141, (2-(2,6-dioxopiperidin-3-yl)-3-oxoisoindolin-5-yl)methyl (5-chloro-2-fluoro-4-methylphenyl)carbamate]
DC50 (GSPT1; [2]): 30 to 300 nM

O=C1CCC(N2Cc3ccc(COC(=O)Nc4ccc(C5(F)CC5)nc4)cc3C2=O)C(=O)N1 (stereo not shown) [Compound 109, (2-(2,6-dioxopiperidin-3-yl)-3-oxoisoindolin-5-yl)methyl (6-(1-fluorocyclopropyl)pyridin-3-yl)carbamate]
DC50 (GSPT1; [2]): < 30 nM
DC50 (GSPT1; [3]): ≤ 30 nM

CC(C)(C)c1ccc(NC(=O)OCc2ccc3c(c2)C(=O)N(C2CCC(=O)NC2=O)C3)c(F)c1 (stereo not shown) [Compound 142, (2-(2,6-dioxopiperidin-3-yl)-3-oxoisoindolin-5-yl)methyl (4-(tert-butyl)-2-fluorophenyl)carbamate]
DC50 (GSPT1; [2]): 30 to 300 nM

O=C1CCC(N2Cc3ccc(COC(=O)Nc4cccc(OC(F)F)c4)cc3C2=O)C(=O)N1 (stereo not shown) [Compound 5]
DC50 (GSPT1; [2]): < 30 nM
DC50 (GSPT1; [3]): ≤ 30 nM

Cc1cc(NC(=O)OCc2ccc3c(c2)C(=O)N(C2CCC(=O)NC2=O)C3)cc(C(C)(C)C)n1 (stereo not shown) [Compound 118]
DC50 (GSPT1; [2]): < 30 nM
DC50 (GSPT1; [3]): ≤ 30 nM

O=C1CCC(N2Cc3ccc(COC(=O)Nc4cc(OC(F)(F)F)ccc4F)cc3C2=O)C(=O)N1 (stereo not shown) [Compound 145, (2-(2,6-dioxopiperidin-3-yl)-3-oxoisoindolin-5-yl)methyl(2-fluoro-5-(trifluoromethoxy)phenyl)carbamate]
DC50 (GSPT1; [2]): 30 to 300 nM

CC(C)(C)c1cccc(NC(=O)OCc2ccc3c(c2)C(=O)N(C2CCC(=O)NC2=O)C3)c1 (stereo not shown) [Compound 153, (2-(2,6-dioxopiperidin-3-yl)-3-oxoisoindolin-5-yl)methyl (3-(tert-butyl)phenyl)carbamate]
DC50 (GSPT1; [2]): < 30 nM
DC50 (GSPT1; [3]): ≤ 30 nM

O=C1CCC(N2Cc3ccc(COC(=O)NC4CCCCC4)cc3C2=O)C(=O)N1 (stereo not shown) [Compound 28]
DC50 (GSPT1; [2]): > 300 nM

O=C1CCC(N2Cc3ccc(COC(=O)Nc4cc(CN5CCOCC5)cc(OC(F)F)c4)cc3C2=O)C(=O)N1 (stereo not shown) [Compound 95]
DC50 (GSPT1; [2]): < 30 nM
DC50 (GSPT1; [3]): ≤ 30 nM

O=C1CCC(N2Cc3ccc(COC(=O)Nc4ccc5c(c4)OC(F)(F)O5)cc3C2=O)C(=O)N1 (stereo not shown) [Compound 79]
DC50 (GSPT1; [2]): < 30 nM
DC50 (GSPT1; [3]): ≤ 30 nM

Cc1cc(C)c(NC(=O)OCc2ccc3c(c2)C(=O)N(C2CCC(=O)NC2=O)C3)cc1Cl (stereo not shown) [Compound 123, (2-(2,6-dioxopiperidin-3-yl)-3-oxoisoindolin-5-yl) methyl (5-chloro-2,4-dimethylphenyl)carbamate]
DC50 (GSPT1; [2]): > 300 nM

O=C1CCC(N2Cc3ccc(COC(=O)Nc4ccc(F)c(Cl)c4)cc3C2=O)C(=O)N1 (stereo not shown) [Compound 9]
DC50 (GSPT1; [2]): 30 to 300 nM

Cc1cc(Cl)c(NC(=O)OCc2ccc3c(c2)C(=O)N(C2CCC(=O)NC2=O)C3)cc1Cl (stereo not shown) [Compound 119]
DC50 (GSPT1; [2]): > 300 nM

O=C1CCC(N2Cc3ccc(COC(=O)Nc4cc(OCCN5CCOCC5)cc(OC(F)F)c4)cc3C2=O)C(=O)N1 (stereo not shown) [Compound 96]
DC50 (GSPT1; [2]): < 30 nM
DC50 (GSPT1; [3]): ≤ 30 nM

Cc1ccc(OC(F)(F)F)cc1NC(=O)OCc1ccc2c(c1)C(=O)N(C1CCC(=O)NC1=O)C2 (stereo not shown) [Compound 128]
DC50 (GSPT1; [2]): > 300 nM

Cc1ccc(NC(=O)OCc2ccc3c(c2)C(=O)N(C2CCC(=O)NC2=O)C3)cc1F (stereo not shown) [Compound 133, (2-(2,6-dioxopiperidin-3-yl)-3-oxoisoindolin-5-yl)methyl (3-fluoro-4-methylphenyl)carbamate]
DC50 (GSPT1; [2]): 30 to 300 nM

O=C1CCC(N2Cc3ccc(COC(=O)Nc4ccccc4)cc3C2=O)C(=O)N1 (stereo not shown) [Compound 138, (2-(2,6-dioxopiperidin-3-yl)-3-oxoisoindolin-5-yl)methyl phenylcarbamate]
DC50 (GSPT1; [2]): > 300 nM

Cc1cc(NC(=O)OCc2ccc3c(c2)C(=O)N(C2CCC(=O)NC2=O)C3)cc(F)c1C (stereo not shown) [Compound 117]
DC50 (GSPT1; [2]): 30 to 300 nM

CCc1cc(NC(=O)OCc2ccc3c(c2)C(=O)N(C2CCC(=O)NC2=O)C3)cc(C)n1 (stereo not shown) [Compound 71]
DC50 (GSPT1; [2]): 30 to 300 nM
